Columns and labels:
PMB-R, KPN.2463 = assay: MIC, CLSI broth microdilution, Gram-negative clinical isolates; assay type: cell-based, Klebsiella pneumoniae
Procedure: (§1) Plates were incubated at 35° C. for 24 h.
(§2) The activity of paenibacterin was also tested against clinical isolates of the following Gram-negative bacterial strains: four strains of the species Pseudomonas aeruginosa (PAE), three strains of the species Acinetobacter baumannii (ABA), two strains of the species Escherichia coli (ECO), and four strains of the species Klebsiella pneumoniae (KPN). Particularly, the strains of Gram-negative bacteria included polymyxin B-resistant (PMB-R) and polymyxin B-sensitive (PMB-S) strains of each above listed species. The MICs were determined using the above described CLSI broth microdilution method, in which the method was performed with both non-binding surface coated (NBS) and polystyrene (PS) 96-well plates (Tables 11 and 12, respectively). The MICs were generally lower in the NBS 96-well plates as compared to the PS 96-well plates.

KPN.674 = assay: as above; assay type: cell-based, Klebsiella pneumoniae
Procedure: as §1, §2

PMB-S, KPN.2461 = assay: as above; assay type: cell-based, Klebsiella pneumoniae
Procedure: as §1, §2

KPN.2317 = assay: as above; assay type: cell-based, Klebsiella pneumoniae
Procedure: as §1, §2

[1] = system: S. aureus (methycillin-resistant); assay: Spot-on-lawn antimicrobial activity; assay type: cell-based, Staphylococcus aureus; conditions: TSBYE
Procedure: (§3) Spot-on-lawn method [He, Z., et al., Appl. Environ. Microbiol., (2007) 73:168-178] was used for the bioassay of antimicrobial activity. Bacterial indicators were incubated at 37° C. for 24 h, except Pseudomonas putida, Clostridium difficile and methycillin resistant Staphylococcus aureus which were incubated for 48 h (Table 1). The indicator overlay was prepared by pouring 10 ml soft agar (seeded with 10 μL indicator culture) onto tryptose agar as basal medium in a petri dish. Purified antimicrobials were two-fold serially diluted and aliquots (10 μL each) were spotted onto the soft agar. The plates were incubated overnight and inspected for the presence of growth inhibition zones. Antimicrobial activity was expressed in arbitrary units (AU)/mL; this value is the reciprocal of the highest dilution displaying a zone of inhibition corresponding to 1 mL of the non-diluted antimicrobial preparation.
(§4) Purified paenibacterin was used for the antimicrobial spectrum test. Microorganisms tested for sensitivity to this compound included pathogenic (e.g., Salmonella Typhimurium, Escherichia coli O157:H7, Listeria monocytogenes, and Staphylococcus aureus) and non-pathogenic (e.g., Escherichia coli K-12, Pseudomonas putida, and Enterococcus faecalis) bacteria (Table 1).

ABA.1570 = assay: MIC, CLSI broth microdilution, Gram-negative clinical isolates; assay type: cell-based, Acinetobacter baumannii
Procedure: as §1, §2

ABA.2315 = assay: as above; assay type: cell-based, Acinetobacter baumannii
Procedure: as §1, §2

ABA.2232 = assay: as above; assay type: cell-based, Acinetobacter baumannii
Procedure: as §1, §2

Yersinia enterocolitica = assay: MIC, CLSI broth microdilution, foodborne pathogens; assay type: cell-based
Procedure: as §1

[2] = system: Bacillus cereus ATCC14579; assay: MIC, CLSI broth microdilution, foodborne pathogens; assay type: cell-based
Procedure: as §1

[3] = system: Listeria monocytogenes Scott A; assay: MIC, CLSI broth microdilution, foodborne pathogens; assay type: cell-based
Procedure: as §1

[4] = system: Escherichia coli O157:H7 EDL933; assay: MIC, CLSI broth microdilution, foodborne pathogens; assay type: cell-based
Procedure: as §1

L. monocytogenes = assay: Antimicrobial spectrum test; assay type: cell-based, Listeria monocytogenes; conditions: gram-positive pathogens such as L. monocytogenes
Procedure: as §3, §4

[5] = system: E. coli O157:H7 ATCC 43889; assay: Spot-on-lawn antimicrobial activity; assay type: cell-based, Escherichia coli; conditions: broth medium LB
Procedure: as §3, §4

E. coli O157:H7 EDL 933 = assay: Spot-on-lawn antimicrobial activity; assay type: cell-based, Escherichia coli; conditions: broth medium LB
Procedure: as §3, §4

ATCC 25922 ECO.35 = assay: MIC, CLSI broth microdilution, Gram-negative clinical isolates; assay type: cell-based, Escherichia coli
Procedure: as §1, §2

ECO.2276 = assay: as above; assay type: cell-based, Escherichia coli
Procedure: as §1, §2

[6] = system: polymixin B-sensitive strains of Escherichia coli; assay: MIC, Table 11; assay type: cell-based; conditions: NBS plates
Procedure: as §1, §2

[7] = system: polymixin B-sensitive strains of Pseudomonas aeruginosa; assay: MIC, Table 11; assay type: cell-based; conditions: NBS plates
Procedure: as §1, §2

[8] = system: polymyxin B-resistant and polymyxin B-sensitive strains of Acinetobacter baumannii; assay: MIC, Table 11; assay type: cell-based; conditions: Table 11 (NBS plates)
Procedure: as §1, §2

[9] = system: polymixin B-sensitive strains of Klebsiella pneumoniae; assay: MIC, Table 11; assay type: cell-based; conditions: NBS plates
Procedure: as §1, §2

[10] = based on molecular weight of 1604 Da

paenibacterin
Minimum inhibitory concentration (MIC) (PMB-R, KPN.2463; KPN.2463 (PMB-R), NBS 96-well plates): 8 mg/L
Minimum inhibitory concentration (MIC) (PMB-R, KPN.2463; KPN.2463, PS 96-well plates): 32 mg/L
Minimum inhibitory concentration (MIC) (KPN.674; NBS 96-well plates): 8 mg/L
Minimum inhibitory concentration (MIC) (KPN.674; PS 96-well plates): 32 mg/L
Minimum inhibitory concentration (MIC) (PMB-S, KPN.2461; KPN.2461 (PMB-S), NBS 96-well plates): 4 mg/L
Minimum inhibitory concentration (MIC) (PMB-S, KPN.2461; KPN.2461, PS 96-well plates): 32 mg/L
Minimum inhibitory concentration (MIC) (KPN.2317; NBS 96-well plates): 64 mg/L
Minimum inhibitory concentration (MIC) (KPN.2317; PS 96-well plates): 64 mg/L
Antimicrobial activity (AU/ml) [1]: 100 AU/ml
Minimum inhibitory concentration (MIC) (ABA.1570; NBS 96-well plates): 2 mg/L
Minimum inhibitory concentration (MIC) (ABA.1570; PS 96-well plates): 32 mg/L
Minimum inhibitory concentration (MIC) (ABA.2315; NBS 96-well plates): 2 mg/L
Minimum inhibitory concentration (MIC) (ABA.2315; PS 96-well plates): 32 mg/L
Minimum inhibitory concentration (MIC) (ABA.2232; NBS 96-well plates): 2 mg/L
Minimum inhibitory concentration (MIC) (ABA.2232; PS 96-well plates): 32 mg/L
Minimum inhibitory concentration (MIC) Average (Yersinia enterocolitica; average of three replicates): 3.26 mg/L
Minimum inhibitory concentration (MIC) Average (Yersinia enterocolitica; [10]): 2.03 µM
Minimum inhibitory concentration (MIC) Average ([2]; average of three replicates): 15.6 mg/L
Minimum inhibitory concentration (MIC) Average [2, 10]: 9.74 µM
Minimum inhibitory concentration (MIC) Average ([3]; average of three replicates): 1.95 mg/L
Minimum inhibitory concentration (MIC) Average [3, 10]: 1.22 µM
Minimum inhibitory concentration (MIC) Average ([4]; average of three replicates): 7.81 mg/L
Minimum inhibitory concentration (MIC) Average [4, 10]: 4.87 µM
Antimicrobial activity (in words) (L. monocytogenes): good activity
Antimicrobial activity (AU/ml) [5]: 1600 AU/ml
Antimicrobial activity (AU/ml) (E. coli O157:H7 EDL 933): 1600 AU/ml
Minimum inhibitory concentration (MIC) (ATCC 25922 ECO.35; ECO.35 (ATCC 25922), NBS 96-well plates): 8 mg/L
Minimum inhibitory concentration (MIC) (ATCC 25922 ECO.35; ECO.35, PS 96-well plates): 16 mg/L
Minimum inhibitory concentration (MIC) (ECO.2276; NBS 96-well plates): 8 mg/L
Minimum inhibitory concentration (MIC) (ECO.2276; PS 96-well plates): 16 mg/L
MIC [6]: 8 mg/L
MIC [7]: 8 mg/L
MIC [8]: 2 mg/L
MIC [9]: 8 mg/L
